≈ marks a conversion by molar mass, not a printed value. Where two headings read alike, the source gives them in different places.
What was measured:
Format in all cases: physicochemical
[1] = Solubility in various media (equilibration on a shaking bed for 24 hours, HPLC); details: for solubility at 24 h: thermodynamic from solid
Procedure: Solubility: The solubility of form IA in various media was determined at ambient conditions by equilibrating aliquots of the drug powder with the solvents on a shaking bed for 24 hours. The samples were centrifuged, the saturated solutions of the drug were then separated and analyzed by HPLC. The sample volume was 100 μL and the target concentration was 10 mg/mL. The saturated solutions were diluted appropriately and analyzed by HPLC.
Solubility: Solubility of form IIC in various media was determined at ambient conditions by equilibrating aliquots of the drug powder with the solvents on a shaking bed for 24 hours. Samples were spun and the supernatant was carefully separated and analyzed by HPLC at the 24-hour timepoint using a stability-indicating method. […] Some variability may occur between lots of a particular sample.
Solubility: Solubility of form IIIB in various media was determined at ambient conditions by equilibrating aliquots of the drug powder with the medium on a shaking bed for 24 hours. The samples were centrifuged, the saturated solutions of the drug were then separated and analyzed by HPLC. The sample volume was 100 μL, and the target concentration was 10 mg/ml. The saturated solutions were diluted appropriately and analyzed by HPLC.

[2] = Dynamic Vapor Sorption (DVS), step isothermal study; details: 25° C.
Procedure: Dynamic Vapor Sorption (DVS): A step isothermal study (25° C.) was conducted on a representative sample of form IA using a VTI SGA 100 Symmetric Vapor Sorption Analyzer. An aliquot of approximately 10 mg was weighed in an open platinum dish and exposed to different levels of humidity at 25° C. Relative humidity (RH) steps were from 5% to 95% (adsorption) and from 95% to 5% in increments of 5% RH (desorption). The equilibration criterion was 0.0100 wt % change in 5 min, with a max equilibration time of 180 min. The sample picked up ˜8 wt % moisture at 95% relative humidity (RH).
Dynamic Vapor Sorption (DVS): A step isothermal study (25° C.) was conducted on a sample of form IIA using a VTI SGA 100 Symmetric Vapor Sorption Analyzer. An aliquot of approximately 10 mg was weighed in an open platinum dish and exposed to different levels of humidity at 25° C. Relative humidity (RH) steps were from 5% to 95% (adsorption) and from 95% to 5% in increments of 5% RH (desorption). The equilibration criterion was 0.0100 wt % change in 5 min, with a max equilibration time of 180 min. The material picked up ˜11 wt % moisture at 95% relative humidity (RH).
Dynamic Vapor Sorption (DVS): A step isothermal study (25° C.) was conducted on a sample of form IIC using a VTI SGA 100 Symmetric Vapor Sorption Analyzer. An aliquot of approximately 10 mg was weighed in an open platinum dish and exposed to different levels of humidity at 25° C. Relative humidity (RH) steps were from 5% to 95% (adsorption) and from 95% to 5% in increments of 5% RH (desorption). The equilibration criterion was 0.0100 wt % change in 5 min, with a max equilibration time of 180 min. The material picked up ˜4 wt % moisture at 95% relative humidity (RH).
Water Vapor Sorption analysis: Vapor Sorption analysis of a sample of form IIIB was done using a SGA-100 Vapor Sorption Analyzer (VTI, Hialeah, Fla.). A sample with weight of approximately 7-12 mg was measured isothermally at 25° C. Data was collected by Isotherm software and analyzed by Microsoft Excel with a VTI macro (VTI, Hialeah, Fla.). The sample gained about 4.6% in weight from 5 to 95% RH (25° C.).

[3] = Stability analysis (chemical stability by HPLC, physical stability by XRPD)
Description: In some embodiments, less than 25% of the form of Compound 1 decomposes, in some embodiments, less than about 20%, less than about 15%, less than about 10%, less than about 5%, less than about 3%, less than about 1%, less than about 0.5% of the form of Compound 1 decomposes under the conditions specified. In some embodiments, no detectable amount of the form of Compound 1 decomposes.
In some embodiments, less than 25% of the form of Compound 1 changes into one or more different physical forms when subjected to specified conditions, In some embodiments, less than about 20%, less than about 15%, less than about 10%, less than about 5%, less than about 3%, less than about 1%, less than about 0.5% of the form of Compound 1 changes into one or more different physical forms of Compound 1 when subjected to specified conditions. In some embodiments, no detectable amount of the form of Compound 1 changes into one or more different physical forms of Compound 1.

[4] = various storage conditions, including 40° C./75% RH (e.g., open container)

Which solubility at 24 h ([1]; 0.05 M potassium biphthalate-sodium hydroxide buffer, pH 3, aqueous buffer, Potassium biphthalate sodium hydroxide, pH 3, read-out: Solubility in 0.05M Buffers at Different pH) does the source give for `CCNC(=O)Nc1nc2cc(-c3cncc(F)c3)cc(-c3ncccn3)c2[nH]1` [Form IA, crystalline 1-ethyl-3-(5-(5-fluoropyridin-3-yl)-7-(pyrimidin-2-yl)-1H-benzo[d]imidazol-2-yl)urea] here?
The solubility at 24 h was 70 µg/mL (≈ 185 µM).

And the solubility at 24 h ([1]; 0.05 M potassium biphthalate-sodium hydroxide buffer, pH 5, aqueous buffer, Potassium biphthalate sodium hydroxide, pH 5, read-out: Solubility in 0.05M Buffers at Different pH)?
Its solubility at 24 h is under 1 µg/mL.

And the solubility at 24 h ([1]; 0.05 M potassium chloride-hydrochloric acid buffer, pH 1, simulated gastric fluid, Potassium chloride hydrochloric acid, pH 1, read-out: Solubility in 0.05M Buffers at Different pH)?
The solubility at 24 h was 2240 µg/mL (≈ 5940 µM).

What about the solubility at 24 h ([1]; 0.05 M potassium phosphate monobasic-sodium hydroxide buffer, pH 7, aqueous buffer, Potassium phosphate monobasic-sodium hydroxide, pH 7, read-out: Solubility in 0.05M Buffers at Different pH) of the same molecule?
The solubility at 24 h was under 1 µg/mL.

What about the solubility at 24 h ([1]; 0.05 M potassium phosphate monobasic-sodium hydroxide buffer, pH 9, aqueous buffer, Potassium phosphate monobasic-sodium hydroxide, pH 9, read-out: Solubility in 0.05M Buffers at Different pH) of the same molecule?
The solubility at 24 h was under 1 µg/mL.

And the solubility at 24 h ([1]; 0.1N HCl, pH 1.29, simulated gastric fluid, 0.1N HCL, pH 1.29, ambient, 24 h, read-out: Solubility)?
The solubility at 24 h was 13700 µg/mL (≈ 36200 µM).

And the solubility at 24 h ([1]; 1% SLS (sodium lauryl sulfate), pH 7.87, aqueous with cosolvent or surfactant or cyclodextrin, 1% SLS (Sodium Lauryl Sulfate), pH 7.87, ambient, 24 h, read-out: Solubility)?
Its solubility at 24 h is 75 µg/mL (≈ 199 µM).

What about the solubility at 24 h ([1]; 1% Tween 80 in water, aqueous with cosolvent or surfactant or cyclodextrin, 1% Tween80 in water, ambient, 24 h, read-out: Solubility) of the same molecule?
The solubility at 24 h was 10 µg/mL (≈ 26.5 µM).

And the solubility at 24 h ([1]; 10% Cremophor EL, pH 6.48, aqueous with cosolvent or surfactant or cyclodextrin, 10% Cremophor EL, pH 6.48, ambient, 24 h, read-out: Solubility)?
Its solubility at 24 h is 66 µg/mL (≈ 175 µM).

And the solubility at 24 h ([1]; 10% Cremophor in water, aqueous with cosolvent or surfactant or cyclodextrin, 10% Cremophor in water, ambient, 24 h, read-out: Solubility)?
Its solubility at 24 h is 80 µg/mL (≈ 212 µM).

And the solubility at 24 h ([1]; 10% Tween 80, pH 6.22, aqueous with cosolvent or surfactant or cyclodextrin, 10% Tween 80, pH 6.22, ambient, 24 h, read-out: Solubility)?
The solubility at 24 h was 67 µg/mL (≈ 178 µM).

And the solubility at 24 h ([1]; 10% Vit E TPGS, pH 5.57, aqueous with cosolvent or surfactant or cyclodextrin, 10% Vit E TPGS, pH 5.57, ambient, 24 h, read-out: Solubility)?
Its solubility at 24 h is 87 µg/mL (≈ 231 µM).

And the solubility at 24 h ([1]; D5W (dextrose 5% in water), saline or isotonic, D5W (Dextrose 5% in water), ambient, 24 h, read-out: Solubility)?
Its solubility at 24 h is under 1 µg/mL.

And the solubility at 24 h ([1]; Fasted SIF (Dressman's recipe 1), fassif, Dressman's recipe 1-Fasted SIF, ambient, 24 h, read-out: Solubility)?
The solubility at 24 h was under 1 µg/mL.

What about the solubility at 24 h ([1]; Fed SIF (simulated intestinal fluid, Dressman's recipe 1), fessif, Dressman's recipe 1-Fed SIF (Simulated Intestinal Fluid), ambient, 24 h, read-out: Solubility) of the same molecule?
The solubility at 24 h was 10 µg/mL (≈ 26.5 µM).

And the solubility at 24 h ([1]; Miglyol 810, oil or lipid, Miglyol 810, ambient, 24 h, read-out: Solubility)?
The solubility at 24 h was 17 µg/mL (≈ 45 µM).

What about the solubility at 24 h ([1]; PBS, aqueous buffer, PBS (Phosphate Buffer Saline), ambient, 24 h, read-out: Solubility) of the same molecule?
The solubility at 24 h was under 1 µg/mL.

And the solubility at 24 h ([1]; PEG 400, pH 7.54, organic solvent or mixture, PEG 400, pH 7.54, ambient, 24 h, read-out: Solubility)?
Its solubility at 24 h is 1620 µg/mL (≈ 4300 µM).

What about the solubility at 24 h ([1]; SGF (simulated gastric fluid, USP recipe), simulated gastric fluid, USP recipe-SGF (Simulated Gastric Fluid), ambient, 24 h, read-out: Solubility) of the same molecule?
The solubility at 24 h was 4920 µg/mL (≈ 13000 µM).

And the solubility at 24 h ([1]; Tris buffer, pH 7 (1.0 M), pH 7.2, aqueous buffer, Tris buffer, pH 7 (1.0M), pH 7.20, ambient, 24 h, read-out: Solubility)?
The solubility at 24 h was under 1 µg/mL.

What about the solubility ([1]; at a pH of about 1) of the same molecule?
Its solubility is “about 2 mg/mL”.

What about the solubility at 24 h ([1]; deionized water, pH 7.14, water, Deionized Water, pH 7.14, ambient, 24 h, read-out: Solubility) of the same molecule?
The solubility at 24 h was under 1 µg/mL.

What about the solubility at 24 h ([1]; ethanol, organic solvent or mixture, Ethanol (second entry, pH NA), ambient, 24 h, read-out: Solubility) of the same molecule?
Its solubility at 24 h is 220 µg/mL (≈ 583 µM).

What about the solubility at 24 h ([1]; ethanol, pH 6.71, organic solvent or mixture, Ethanol (first entry), pH 6.71, ambient, 24 h, read-out: Solubility) of the same molecule?
The solubility at 24 h was 56 µg/mL (≈ 148 µM).

What about the solubility at 24 h ([1]; octanol, organic solvent or mixture, Octanol, ambient, 24 h, read-out: Solubility) of the same molecule?
Its solubility at 24 h is 175 µg/mL (≈ 464 µM).

What about the solubility at 24 h ([1]; pH 1, simulated gastric fluid, at a pH of about 1, read-out: solubility) of the same molecule?
The solubility at 24 h was at least 2000 µg/mL.

And the solubility at 24 h ([1]; propylene glycol, pH 6.04, organic solvent or mixture, Propylene Glycol, pH 6.04, ambient, 24 h, read-out: Solubility)?
Its solubility at 24 h is 359 µg/mL (≈ 951 µM).

And the hygroscopicity ([2]; DVS)?
The hygroscopicity was “moderate hygroscopicity”.

What about the hydrate formation ([2]; DVS, 5% to 95% RH) of the same molecule?
Its hydrate formation is “did not form a hydrate”.

What about the “release of adsorbed water in the desorption stage” value ([2]; DVS, 95% to 5% RH) of the same molecule?
Its value is “All adsorbed water was released”.

What about the “moisture picked up at 95% relative humidity (RH)” value ([2]; DVS, adsorption 5% to 95% RH) of the same molecule?
The value was about 8 wt %.

And the “weight gain from 5% to 95% relative humidity” value ([2]; step isothermic study (DVS))?
The value was 8%.

And the “remains chemically stable for at least” value ([3]; 40° C./75% relative humidity)?
The value was at least 6 months.

What about the “remains in substantially the same physical form for at least” value ([3]; 40° C./75% relative humidity) of the same molecule?
The value was at least 6 months.

And the “stability when subjected to mild mechanical stress” value ([3]; mild mechanical stress such as grinding)?
The value was “chemically and physically stable”.

What about the “chemically and physically stable for at least about” value [3, 4] of the same molecule?
Its value is “at least 2 weeks”.

And the “chemically and physically stable for at least about (e.g. value)” value [3, 4]?
The value was at least 6 months.
